The numbers were not newly measured in patent US5208032A, “Increasing the growth of turkeys using implant of 19-nortestosterone” (Rutgers, The State University of New Jersey, priority 1992, dated 1993), which cites them from elsewhere.

The conditions of data set [1]: mice, Innovative Research pellets, 21 days; cited from earlier work.
The subject of data set [2] is testosterone antiserum. Particulars: manufacturer statement; cited from earlier work.
In data set [3] the test system is 5-alpha-DHT anti-serum. The following applies: antibody provided by Dr. Alan L. Johnson; cited from earlier work.

On to `C[C@]12CC[C@@H]3c4ccc(O)cc4CC[C@H]3[C@@H]1CC[C@@H]2O` [17 beta-estradiol], for which the maintained blood levels in data set [1] was 20 to 30 ng/mL. Take `C[C@]12CCC(=O)C=C1CC[C@@H]1[C@@H]2CC[C@]2(C)C(=O)CC[C@@H]12` [4-adrosten-3,17-dione]: in data set [2], the “cross-reaction with Immuchem testosterone antiserum” value is reported as 0.56%. The “reaction with 5-alpha-DHT anti-serum (Ford's-F/1)” value in data set [3] is 11.4%. `C[C@]12CC[C@@H](O)C[C@@H]1CC[C@@H]1[C@@H]2CC[C@]2(C)[C@@H](O)CC[C@@H]12` [5-alpha-androstane-3-alpha,17-beta-diol]: in data set [2], the “cross-reaction with Immuchem testosterone antiserum” value is recorded as “less than 0.01%”.
